Values after ≈ are worked out from the molar mass of the structure shown.
Legend:
[1] = molecular target: T1, KinA/Spo0F (sporulation kinase A/sporulation initiation phosphotransferase F) (Bacillus subtilis (strain 168), UniProt P06628+P16497); experiment: Ability to inhibit autophosphorylation of KinA/Sp0F assay; assay type: protein assay
T1 sequence (P06628 whole entry): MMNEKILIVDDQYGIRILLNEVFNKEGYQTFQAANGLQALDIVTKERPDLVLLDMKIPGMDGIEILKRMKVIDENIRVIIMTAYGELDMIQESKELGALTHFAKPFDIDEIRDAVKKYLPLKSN
T1 sequence (P16497 whole entry): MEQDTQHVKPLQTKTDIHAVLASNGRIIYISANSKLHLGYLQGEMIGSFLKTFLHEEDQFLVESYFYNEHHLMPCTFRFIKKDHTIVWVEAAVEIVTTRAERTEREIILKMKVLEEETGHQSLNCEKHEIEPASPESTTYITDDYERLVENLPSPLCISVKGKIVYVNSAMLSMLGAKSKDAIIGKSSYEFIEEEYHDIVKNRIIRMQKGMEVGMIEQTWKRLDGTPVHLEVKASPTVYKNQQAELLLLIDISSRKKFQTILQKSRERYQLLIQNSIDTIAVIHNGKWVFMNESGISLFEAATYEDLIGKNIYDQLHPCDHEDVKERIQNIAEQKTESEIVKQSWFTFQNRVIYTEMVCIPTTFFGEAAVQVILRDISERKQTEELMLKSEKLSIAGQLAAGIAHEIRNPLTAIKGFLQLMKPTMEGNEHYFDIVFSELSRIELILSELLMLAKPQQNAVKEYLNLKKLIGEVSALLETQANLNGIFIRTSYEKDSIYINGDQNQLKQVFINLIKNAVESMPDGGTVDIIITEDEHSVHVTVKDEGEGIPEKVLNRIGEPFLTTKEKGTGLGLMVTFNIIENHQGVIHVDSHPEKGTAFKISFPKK

Bacteria [2] = experiment: Minimum inhibitory concentration for Gram-positive antibacterial activity by using standard MIC broth assay method; 4-8; assay type: functional
[3] = Ratio of NRII-NRI to KinA-Spo0F IC50s
Bacteria [4] = experiment: Minimum inhibitory concentration for Gram-positive antibacterial activity by using standard MIC broth assay method; 0.5-1; assay type: functional
[5] = (§1) Inhibition of NRII and/or NRI phosphorylation in Escherichia coli
Bacteria [6] = experiment: Minimum inhibitory concentration for Gram-positive antibacterial activity by using standard MIC broth assay method; 0.1-0.5; assay type: functional
Bacteria [7] = experiment: Minimum inhibitory concentration for Gram-positive antibacterial activity by using standard MIC broth assay method; 0.5-2; assay type: functional
Bacteria [8] = experiment: Minimum inhibitory concentration for Gram-positive antibacterial activity by using standard MIC broth assay method; 0.25-0.5; assay type: functional
Bacteria [9] = experiment: Minimum inhibitory concentration for Gram-positive antibacterial activity by using standard MIC broth assay method; 0.25-1; assay type: functional
Bacteria [10] = experiment: Minimum inhibitory concentration for Gram-positive antibacterial activity by using standard MIC broth assay method; 8-16; assay type: functional
Bacteria [11] = experiment: Minimum inhibitory concentration for Gram-positive antibacterial activity by using standard MIC broth assay method; assay type: functional
[12] = as §1; assay type: functional

| SMILES | IC50 [1] [µM] | Ratio [3] | also measured |
| --- | --- | --- | --- |
| Cc1ccc(-c2n[nH]c(-c3cc(Cl)cc(Cl)c3O)n2)cc1C | > 500 |  | MIC (Bacteria [2]): 4 µg/mL (≈ 12 µM) |
| Oc1c(Cl)cc(Cl)cc1-c1n[nH]c(-c2cccc(Cl)c2)n1 | 87 | 1.5 | MIC (Bacteria [4]): 0.5 µg/mL (≈ 1.47 µM); IC50 [5]: 130 µM |
| Oc1c(Br)cc(Br)cc1-c1n[nH]c(-c2ccc(Oc3ccccc3)cc2)n1 | 100 | 0.75 | IC50 [5]: 75 µM |
| O=C(Nc1ccc(Cl)c(Cl)c1)c1cc(Cl)cc(Cl)c1O [3,3',4',5-TETRACHLOROSALICYLANILIDE] | 37 |  | MIC (Bacteria [6]): 0.1 µg/mL (≈ 0.285 µM) |
| O=[N+]([O-])c1ccc(-c2nc(-c3cc(Cl)cc(Cl)c3O)n[nH]2)cc1 | > 500 |  |  |
| Oc1c(Cl)cc(Cl)cc1-c1n[nH]c(-c2ccc(Cl)cc2)n1 | 80 | 0.71 | MIC (Bacteria [7]): 0.5 µg/mL (≈ 1.47 µM); IC50 [5]: 57 µM |
| Oc1c(Cl)cccc1-c1n[nH]c(-c2ccc(Cl)c(Cl)c2)n1 | > 500 |  |  |
| Oc1c(Br)cc(Br)cc1-c1n[nH]c(-c2ccc(Cl)c(Cl)c2)n1 | 24 |  | MIC (Bacteria [8]): 0.25 µg/mL (≈ 0.539 µM) |
| CC(C)(C)c1cc(-c2n[nH]c(-c3ccc(Cl)c(Cl)c3)n2)c(O)c(C(C)(C)C)c1 | > 500 |  |  |
| Oc1c(-c2n[nH]c(-c3ccc(Cl)c(Cl)c3)n2)cc(C(F)(F)F)cc1C(F)(F)F | 44 |  | MIC (Bacteria [9]): 0.25 µg/mL (≈ 0.565 µM) |
| NS(=O)(=O)c1ccc(O)c(-c2n[nH]c(-c3ccc(Cl)c(Cl)c3)n2)c1 | 91 |  | MIC (Bacteria [10]): 8 µg/mL (≈ 20.8 µM) |
| CC(C)c1ccc(-c2n[nH]c(-c3cc(Cl)cc(Cl)c3O)n2)cc1 | > 500 |  |  |
| COc1ccc(-c2n[nH]c(-c3cc(Cl)cc(Cl)c3O)n2)cc1 | > 500 |  |  |
| Oc1c(Cl)cc(Cl)cc1-c1n[nH]c(-c2ccc(Cl)c(Cl)c2)n1 | 67 | 2.2 | MIC (Bacteria [8]): 0.25 µg/mL (≈ 0.667 µM); IC50 [5]: 150 µM |
| Oc1c(Cl)cc(Cl)cc1-c1n[nH]c(-c2ccc(Cl)c(C(F)(F)F)c2)n1 | 16 | 4.1 | MIC (Bacteria [9]): 0.25 µg/mL (≈ 0.612 µM); IC50 [5]: 65 µM |
| Oc1ccc(Cl)cc1-c1n[nH]c(-c2ccc(Cl)c(Cl)c2)n1 | > 500 |  | MIC (Bacteria [11]): > 32 µg/mL |
| O=[N+]([O-])c1cc(-c2n[nH]c(-c3ccc(Cl)c(Cl)c3)n2)c(O)c([N+](=O)[O-])c1 | 8 | 3.5 | MIC (Bacteria [11]): > 64 µg/mL; IC50 [12]: 28 µM |
| Oc1c(Cl)cc(Cl)cc1-c1n[nH]c(-c2ccccc2)n1 | 380 |  |  |
